Experimental data published in PMC10418599, “Quercetins, Chlorogenic Acids and Their Colon Metabolites Inhibit Colon Cancer Cell Proliferation at Physiologically Relevant Concentrations” (International Journal of Molecular Sciences, 2023).

Legend:
SW480 cell line [1] = assay: Cell metabolism of phenolic compounds (UHPLC-HR-MS analysis of cell media); format: in vitro ADME, Human; details: for Concentration of substrate in cell medium: initial 50 μmol/L
Experimental: (§1) To analyze the metabolism of phenolic compounds by Caco-2 and SW480 cells, the cell culture media were withdrawn after 0, 24, 48 and 72 h of incubation. Phenolic compounds were extracted from the culture media by following the procedure reported in Sala et al.. Briefly, 100 μL of cold methanol was mixed with 100 μL of cell media and vortexed for 1 min. The mixture was then centrifuged at 10,000× g (4 °C, 5 min) and the supernatant was injected, after appropriate dilution, in an ultra-high-performance liquid chromatography high-resolution mass spectrometry system (UHPLC-HR-MS).
(§2) The HR-MS system consisted of a UHPLC Ultimate 3000 separation module, equipped with a C18 column (Acquity UPLC HSS C18 reversed phase, 2.1 × 100 mm, 1.8 μm particle size, Waters, Milan, Italy) and coupled with a Q Exactive Hybrid Quadrupole-Orbitrap Mass Spectrometer (Thermo Scientific, San Jose, CA, USA). Mobile phases consisted of a mixture of water containing formic acid (0.1%) (mobile phase A) and acetonitrile containing formic acid (0.1%) (mobile phase B). The gradient began at 1% B, reaching 40% B over 20 min. To wash the column, the mobile phase B concentration was raised to 99% over 6 min and kept at 99% for 3 min before returning to the initial conditions. The MS and MS/MS conditions are fully described in Martini et al..
(§3) Quantification was carried out by building external calibration curves with the available standard compounds.

[2] = cited from earlier work; for Maximum value in human fecal water: after raspberry supplementation, ref 49 (Gill et al.)
SW480 cell line [3] = assay: Anti-proliferative assay (MTS cell proliferation assay); format: cell-based, Human; details: for IC50: maximum tested concentration 200 μmol/L
Experimental: (§4) Human colon cancer Caco-2 and SW480 cell lines were cultured and grown as previously reported. […] Incubation was carried out for 24, 48 and 72 h. Data were compared with a control solution containing 0.5% DMSO in cell medium and representing 100% proliferation. In addition, six different mixes were prepared to simulate the simultaneous presence of parent phenolic compounds and metabolites by mimicking the possible human inter-individual variability in colon metabolism of phenolic compounds. Two sets of mixes were prepared to consider the colon metabolism of quercetins and chlorogenic acids. […] For each set of mixtures (QUE and CGA mixtures), three different mixes were formulated. One set of mixes mimicked the low-producers metabotype and contained 90% parent compounds and 10% metabolites (mixes QUE-LP and CGA-LP). Another set of mixes was prepared to simulate the high-producers metabotype and contained 10% parent compounds and 90% metabolites (mixes QUE-HP and CGA-HP). Finally, a third set of mixes was prepared with equimolar amounts of all the compounds (mixes QUE-EQ and CGA-EQ). […] Cell proliferation was assessed by the MTS assay as previously described. […] The IC50 values were calculated through non-linear regression analysis by plotting the base-10 logarithm of the phenolic compound concentration vs. the percentage of inhibition.

Caco-2 cell line [4] = assay: as above; format: cell-based, Human; details: for IC50: maximum tested concentration 200 μmol/L
Experimental: as §4

in vitro = in vitro ADME; details: human
Experimental: as §1, §2, §3

Caco-2 cell line [5] = assay: in vitro; format: in vitro ADME; details: human; for Concentration of substrate in cell medium: 50 μmol/L
Experimental: as §1, §2, §3

[6] = Cell metabolism of phenolic compounds (UHPLC-HR-MS analysis of cell media); format: in vitro ADME, Human; details: human, SW480 cells; SW480, 72 h
Experimental: as §1, §2, §3

SW480 cells = assay: Cell cycle analysis by flow cytometry; format: cell-based, Human; details: 72 h, concentration equal to the IC50 value, vs control
Experimental: Cell cycle analysis was carried out in both Caco-2 and SW480 cell lines as previously reported by Nicoletti et al.. Cells were seeded in 6-well plates at a density of 4000 and 8000 cells/cm^2 for Caco-2 and SW480, respectively.
After 72 h of incubation, the cells were washed with PBS, detached from the 6-well plates with 500 μL of trypsin and resuspended in 1000 μL of medium. Subsequently, they were centrifuged at 3500 rpm for 5 min. After removing the supernatant, the pellet was resuspended with 400 μL of Nicoletti’s solution (sodium citrate 0.1%, Triton X-100 0.1% and 20 μg/mL propidium iodide). After 15 min of incubation at 4 °C in the dark, cell cycle analysis was performed with an Epics XL MCL flow cytometer (Beckman Coulter, Brea, CA, USA).
The data were compared with a control solution containing 0.5% DMSO in the cell medium.

[7] = parameters: method as in PMID 33350133, doi:10.1002/fft2.50; details: of the ingested dose; cited from earlier work
[8] = Homo sapiens, SW480, 48 h of incubation
[9] = Homo sapiens, SW480, 72 h of incubation
[10] = Homo sapiens, Caco-2, 24 h of incubation
[11] = Homo sapiens, Caco-2, 48 h of incubation
[12] = Homo sapiens, Caco-2, 72 h of incubation
[13] = no dietary restriction or supplementation, ref 47 (Jenner et al.)

Compound	Concentration of substrate in cell medium (SW480 cell line [1]; SW480, 24 h) [µM]	Concentration of substrate in cell medium (SW480 cell line [1]; SW480, 48 h) [µM]	Concentration of substrate in cell medium (SW480 cell line [1]; SW480, 72 h) [µM]	Maximum value in human fecal water [2] [µmol/L]	IC50 (SW480 cell line [3]; [8]) [µM]	IC50 (SW480 cell line [3]; [9]) [µM]	IC50 (Caco-2 cell line [4]; [11]) [µM]	IC50 (Caco-2 cell line [4]; [12]) [µM]	IC50 (SW480 cell line [3]; SW480, 48 h of incubation) [µM]	IC50 (SW480 cell line [3]; SW480, 72 h of incubation) [µM]	Concentration of substrate in cell medium (Caco-2 cell line [5]; 24 h) [µM]	Concentration of substrate in cell medium (Caco-2 cell line [5]; 48 h) [µM]	Concentration of substrate in cell medium (Caco-2 cell line [5]; 72 h) [µM]	further results
O=C(O)Cc1ccc(O)c(O)c1 [3-(3′,4′-Dihydroxyphenyl)acetic acid, 3-(3′,4′-dihydroxyphenyl)acetic acid]	21.62 ± 0.48	15.84 ± 0.09	10.30 ± 0.36	442	> 200	92.2 ± 6.9	14.7 ± 0.8	3 ± 0.1						IC50 (Caco-2 cell line [4]; [10]): 79.5 ± 1.4 µM
O=C(/C=C/c1ccc(O)c(O)c1)O[C@@H]1C[C@](O)(C(=O)O)C[C@@H](O)[C@H]1O [5-O-Caffeoylquinic acid, 5-O-caffeoylquinic acid]									> 200	> 200				Concentration of substrate in cell medium (SW480 cell line [1]; SW480, 24 h, listed as 5-O-Caffeoylquinic acid trans): 16.76 ± 0.01 µM; Concentration of newly formed metabolite (SW480 cell line [1]; SW480, 24 h, substrate 3,5-di-O-Caffeoylquinic acid 50 μmol/L, listed as 5-O-Caffeoylquinic acid trans): 0.08 ± 0.01 µM; Concentration of newly formed metabolite (SW480 cell line [1]; SW480, 24 h, substrate 3-O-Caffeoylquinic acid trans 50 μmol/L, listed as 5-O-Caffeoylquinic acid trans): 4.95 ± 0.04 µM; Concentration of substrate in cell medium (SW480 cell line [1]; SW480, 48 h, listed as 5-O-Caffeoylquinic acid trans): 17.52 ± 0.08 µM; Concentration of newly formed metabolite (SW480 cell line [1]; SW480, 48 h, substrate 3-O-Caffeoylquinic acid trans 50 μmol/L, listed as 5-O-Caffeoylquinic acid trans): 7.37 ± 0.07 µM; Concentration of substrate in cell medium (SW480 cell line [1]; SW480, 72 h, listed as 5-O-Caffeoylquinic acid trans): 13.96 ± 0.03 µM; Concentration of newly formed metabolite (SW480 cell line [1]; SW480, 72 h, substrate 3,5-di-O-Caffeoylquinic acid 50 μmol/L, listed as 5-O-Caffeoylquinic acid trans): 0.29 ± 0.01 µM; Concentration of newly formed metabolite (SW480 cell line [1]; SW480, 72 h, substrate 3-O-Caffeoylquinic acid trans 50 μmol/L, listed as 5-O-Caffeoylquinic acid trans): 11.32 ± 0.43 µM; Percentage of inhibition of SW480 growth (SW480 cell line [3]; 100 μmol/L, 72 h): 14.7%
O=C(O)CCc1cccc(O)c1 [3-(3′-Hydroxyphenyl)propanoic acid, 3-(3′-hydroxyphenyl)propanoic acid]	52.74 ± 0.44	50.70 ± 0.11	49.95 ± 0.37	1810		> 200	> 200	> 200			45.51 ± 0.41	46.27 ± 0.58	46.28 ± 0.76	recovery at 72 h (in vitro): > 80%; recovery at 72 h [6]: > 80%; Concentration in human fecal water ([2]; no dietary restriction or supplementation, ref 46 (Karlsson et al.)): 61 ± 34 µM; Mean concentration in human fecal water [2, 13]: 68 ± 93 µM; Range of concentration in human fecal water [2, 13]: 0.72 to 209 µmol/L; inhibition at 100 µM (SW480 cell line [3]; Homo sapiens, SW480, 100 μmol/L, 72 h, read-out: Percentage of inhibition of SW480 growth): 13.3%; IC50 (Caco-2 cell line [4]; [10]): > 200 µM
O=C(/C=C/c1ccc(O)c(O)c1)OC1CC(O)(C(=O)O)CC(OC(=O)/C=C/c2ccc(O)c(O)c2)C1O (stereo not shown) [3,5-di-O-Caffeoylquinic acid, 3,5-di-O-caffeoylquinic acid]	7.13 ± 0.13	5.41 ± 0.07	6.17 ± 0.05						> 200	> 200				Percentage of inhibition of SW480 growth (SW480 cell line [3]; 100 μmol/L, 72 h): 10.9%; Inhibition of Caco-2 growth (Caco-2 cell line [4]; 100 μmol/L, 72 h): almost complete inhibition; IC50 (Caco-2 cell line [4]; Caco-2, 24 h of incubation): > 200 µM; IC50 (Caco-2 cell line [4]; Caco-2, 48 h of incubation): 27.5 ± 1 µM; IC50 (Caco-2 cell line [4]; Caco-2, 72 h of incubation): 8.8 ± 0.2 µM
O=c1c(O)c(-c2ccc(O[C@@H]3O[C@H](CO)[C@@H](O)[C@H](O)[C@H]3O)c(O)c2)oc2cc(O)cc(O)c12 [Quercetin-4′-O-glucoside, quercetin-4′-O-glucoside]	2.98 ± 0.07	0.07 ± 0.00	0.01 ± 0.00						144 ± 6.6	102 ± 5.3				Increase in the number of SW480 cells in the S phase (SW480 cells): 2.5 times; Decrease in IC50 value from 48 to 72 h (SW480 cell line [3]; SW480): 1.4 fold; IC50 (Caco-2 cell line [4]; Caco-2, 48 h of incubation): > 200 µM; IC50 (Caco-2 cell line [4]; Caco-2, 72 h of incubation): > 200 µM
O=c1c(O)c(-c2ccc(O)c(O)c2)oc2cc(O)cc(O)c12 [Quercetin, quercetin]	47.39 ± 1.22	40.37 ± 1.20	14.83 ± 0.84		89.2 ± 3.1	58.2 ± 2.7	> 200	116 ± 4.9			0.61 ± 0.01	0.29 ± 0.01	0.52 ± 0.02	Decrease in cell medium concentration (Caco-2 cell line [5]; 24 h): 99.5%; Absorption in the small intestine [7]: about 20%; Concentration of newly formed metabolite (SW480 cell line [1]; SW480, 24 h, substrate Quercetin-4′-O-glucoside 50 μmol/L): 52.70 ± 2.24 µM; Concentration of newly formed metabolite (SW480 cell line [1]; SW480, 48 h, substrate Quercetin-3-O-glucoside-4′-O-glucoside 50 μmol/L): 0.04 ± 0.00 µM; Concentration of newly formed metabolite (SW480 cell line [1]; SW480, 48 h, substrate Quercetin-4′-O-glucoside 50 μmol/L): 36.89 ± 0.52 µM; Concentration of newly formed metabolite (SW480 cell line [1]; SW480, 72 h, substrate Quercetin-3-O-glucoside-4′-O-glucoside 50 μmol/L): 0.07 ± 0.00 µM; Concentration of newly formed metabolite (SW480 cell line [1]; SW480, 72 h, substrate Quercetin-4′-O-glucoside 50 μmol/L): 12.78 ± 0.41 µM; Increase in the number of SW480 cells in the S phase (SW480 cells): 3.1 times; Decrease in IC50 value from 48 to 72 h (SW480 cell line [3]; SW480): 1.5 fold
O=C(O)Cc1cccc(O)c1 [3-(3′-Hydroxyphenyl)acetic acid, 3-(3′-hydroxyphenyl)acetic acid]	42.23 ± 0.55	42.81 ± 0.10	39.28 ± 0.85	327	> 200	99.6 ± 4.8	> 200	> 200			48.83 ± 0.85	47.02 ± 0.39	43.17 ± 0.06	recovery at 72 h (in vitro): > 80%; recovery at 72 h [6]: > 80%
